Results from article PMC5218480 (PLoS ONE, 2017).

System: MV-4-11 cells
Test: Gene expression microarray analysis (Affymetrix PrimeView) and GSEA
Type: cell-based, human
Set-up: RFU PODN (11730768_x_at) / Fold change /veh PODN (11730768_x_at) / RFU LINC00158 (11744669_a_at) / Fold change /veh LINC00158 (11744669_a_at) / RFU DUSP10 (11751237_a_at) / Fold change /veh DUSP10 (11751237_a_at) / RFU ID3 (11757404_x_at) / Fold change /veh ID3 (11757404_x_at) / RFU PLEKHG5 (11737974_s_at) / Fold change /veh PLEKHG5 (11737974_s_at) / RFU LRRC4B (11730491_at) / Fold change /veh LRRC4B (11730491_at) / RFU GIMAP4 (11747438_a_at) / Fold change /veh GIMAP4 (11747438_a_at) / RFU KRT8 (11758183_x_at) / Fold change /veh KRT8 (11758183_x_at) / RFU CNN1 (11734310_a_at) / Fold change /veh CNN1 (11734310_a_at) / RFU VPS37D (11726825_at) / Fold change /veh VPS37D (11726825_at) / RFU C10orf10 (11716522_x_at) / Fold change /veh C10orf10 (11716522_x_at) / RFU KIR2DL2 /// KIR2DL4 /// KIR2DL5A /// KIR2DL5B /// KIR2DS1 /// KIR2DS2 /// KIR2DS3 /// KIR2DS4 /// KIR3DL3 /// KIR3DL3 /// KIR3DS1 (11738374_at) / Fold change /veh KIR2DL2 /// KIR2DL4 /// KIR2DL5A /// KIR2DL5B /// KIR2DS1 /// KIR2DS2 /// KIR2DS3 /// KIR2DS4 /// KIR3DL3 /// KIR3DL3 /// KIR3DS1 (11738374_at) / RFU C1QL1 (11718748_at) / Fold change /veh C1QL1 (11718748_at) / RFU TMPRSS4 (11747572_a_at) / Fold change /veh TMPRSS4 (11747572_a_at) / RFU HAMP (11756126_x_at) / Fold change /veh HAMP (11756126_x_at) / RFU RNFT2 (11725882_a_at) / Fold change /veh RNFT2 (11725882_a_at) / RFU NR4A2 (11747474_a_at) / Fold change /veh NR4A2 (11747474_a_at) / RFU ABCC12 (11746883_a_at) / Fold change /veh ABCC12 (11746883_a_at) / RFU TMEM136 (11760407_x_at) / Fold change /veh TMEM136 (11760407_x_at) / RFU CLDN22 /// WWC2 (11732394_at) / Fold change /veh CLDN22 /// WWC2 (11732394_at) / RFU HLA-DPB1 (11760878_x_at) / Fold change /veh HLA-DPB1 (11760878_x_at) / RFU SPINT1 (11716480_a_at) / Fold change /veh SPINT1 (11716480_a_at) / RFU GAP43 (11754022_s_at) / Fold change /veh GAP43 (11754022_s_at) / RFU A4GNT (11735810_at) / Fold change /veh A4GNT (11735810_at) / RFU PRB3 (11715151_x_at) / Fold change /veh PRB3 (11715151_x_at) / RFU TUBB4B (11761932_at) / Fold change /veh TUBB4B (11761932_at) / RFU CAPN14 (11732068_a_at) / Fold change /veh CAPN14 (11732068_a_at) / RFU TMCC2 (11721928_a_at) / Fold change /veh TMCC2 (11721928_a_at) / RFU IRGQ (11745062_a_at) / Fold change /veh IRGQ (11745062_a_at) / RFU FAM174B (11720279_a_at) / Fold change /veh FAM174B (11720279_a_at) / RFU TMPRSS4 (11748680_a_at) / Fold change /veh TMPRSS4 (11748680_a_at) / RFU FAM212B (11763350_a_at) / Fold change /veh FAM212B (11763350_a_at) / RFU PLEKHG5 (11743358_a_at) / Fold change /veh PLEKHG5 (11743358_a_at) / RFU ZSCAN30 (11745921_a_at) / Fold change /veh ZSCAN30 (11745921_a_at) / RFU CMKLR1 (11741424_a_at) / Fold change /veh CMKLR1 (11741424_a_at) / RFU LOC101060620 /// MAPK8IP1 (11723275_at) / Fold change /veh LOC101060620 /// MAPK8IP1 (11723275_at) / RFU SPTSSB (11747773_x_at) / Fold change /veh SPTSSB (11747773_x_at) / RFU PRSS12 (11739890_at) / Fold change /veh PRSS12 (11739890_at) / RFU BIN1 (11741810_x_at) / Fold change /veh BIN1 (11741810_x_at) / RFU WNT11 (11732464_a_at) / Fold change /veh WNT11 (11732464_a_at) / RFU C10orf10 (11716521_a_at) / Fold change /veh C10orf10 (11716521_a_at) / RFU C5orf56 (11738089_at) / Fold change /veh C5orf56 (11738089_at) / RFU CYB561 (11721691_x_at) / Fold change /veh CYB561 (11721691_x_at) / RFU ANKRD19P (11752326_a_at) / Fold change /veh ANKRD19P (11752326_a_at) / RFU OR2T12 /// OR2T33 /// OR2T8 (11738714_s_at) / Fold change /veh OR2T12 /// OR2T33 /// OR2T8 (11738714_s_at) / RFU VCAN (11748164_a_at) / Fold change /veh VCAN (11748164_a_at) / RFU JSRP1 (11732532_at) / Fold change /veh JSRP1 (11732532_at) / RFU KRTAP10-11 (11738290_x_at) / Fold change /veh KRTAP10-11 (11738290_x_at) / RFU MYO3A (11730013_a_at) / Fold change /veh MYO3A (11730013_a_at) / RFU EBF3 (11725865_a_at) / Fold change /veh EBF3 (11725865_a_at) / RFU CAMK2N1 (11719241_x_at) / Fold change /veh CAMK2N1 (11719241_x_at) / RFU C5orf56 (11738088_a_at) / Fold change /veh C5orf56 (11738088_a_at) / RFU OLFML3 (11715873_a_at) / Fold change /veh OLFML3 (11715873_a_at) / RFU LOC100653217 /// NTM (11731650_a_at) / Fold change /veh LOC100653217 /// NTM (11731650_a_at) / RFU MAPK11 (11762145_a_at) / Fold change /veh MAPK11 (11762145_a_at) / RFU FIZ1 (11724087_x_at) / Fold change /veh FIZ1 (11724087_x_at) / RFU OASL (11726364_x_at) / Fold change /veh OASL (11726364_x_at) / RFU SOX15 (11748057_x_at) / Fold change /veh SOX15 (11748057_x_at) / RFU CD79A (11719716_a_at) / Fold change /veh CD79A (11719716_a_at) / RFU HIST1H1D (11736915_at) / Fold change /veh HIST1H1D (11736915_at) / RFU CASKIN2 (11723855_a_at) / Fold change /veh CASKIN2 (11723855_a_at) / RFU LOC730098 (11760151_x_at) / Fold change /veh LOC730098 (11760151_x_at) / RFU OR4N2 (11742367_at) / Fold change /veh OR4N2 (11742367_at) / RFU PRRT2 (11749266_a_at) / Fold change /veh PRRT2 (11749266_a_at) / RFU SNX32 (11753110_a_at) / Fold change /veh SNX32 (11753110_a_at) / RFU CDHR5 (11726645_a_at) / Fold change /veh CDHR5 (11726645_a_at) / RFU RCAN1 (11760418_a_at) / Fold change /veh RCAN1 (11760418_a_at) / RFU FAM167A (11723789_a_at) / Fold change /veh FAM167A (11723789_a_at) / RFU FAM26E (11764081_at) / Fold change /veh FAM26E (11764081_at) / RFU ISYNA1 (11749810_s_at) / Fold change /veh ISYNA1 (11749810_s_at) / RFU ACY1 (11761880_at) / Fold change /veh ACY1 (11761880_at) / RFU 11764098_at / Fold change /veh 11764098_at / RFU SAMD14 (11745864_x_at) / Fold change /veh SAMD14 (11745864_x_at) / RFU NPB (11741838_a_at) / Fold change /veh NPB (11741838_a_at) / RFU TMPRSS6 (11731388_a_at) / Fold change /veh TMPRSS6 (11731388_a_at) / RFU KRTAP10-2 (11738614_at) / Fold change /veh KRTAP10-2 (11738614_at) / RFU ARHGAP8 /// PRR5-ARHGAP8 (11727945_x_at) / Fold change /veh ARHGAP8 /// PRR5-ARHGAP8 (11727945_x_at) / RFU KRTAP5-7 /// NADSYN1 (11734609_at) / Fold change /veh KRTAP5-7 /// NADSYN1 (11734609_at) / RFU RASL12 (11751679_a_at) / Fold change /veh RASL12 (11751679_a_at) / RFU CDKN2B (11736163_a_at) / Fold change /veh CDKN2B (11736163_a_at) / RFU PRF1 (11729649_at) / Fold change /veh PRF1 (11729649_at) / RFU, ZNF638 /// ZNF638-IT1 / Fold change vs veh, ZNF638 /// ZNF638-IT1 / RFU, PANK3 / Fold change vs veh, PANK3 / RFU, SH3YL1 / Fold change vs veh, SH3YL1 / RFU, ZEB2 / Fold change vs veh, ZEB2 / RFU, NRIP1 / Fold change vs veh, NRIP1 / RFU, PTTG1IP / Fold change vs veh, PTTG1IP / RFU, CAPN2 / Fold change vs veh, CAPN2 / RFU, MED14 / Fold change vs veh, MED14 / RFU, SNORA58 / Fold change vs veh, SNORA58 / RFU, C1orf63 / Fold change vs veh, C1orf63 / RFU, LRRFIP1 / Fold change vs veh, LRRFIP1 / RFU, NDUFAF7 / Fold change vs veh, NDUFAF7 / RFU, SLC12A2 / Fold change vs veh, SLC12A2 / RFU, IBTK / Fold change vs veh, IBTK / RFU, ESF1 / Fold change vs veh, ESF1 / Fold change vs veh, TMEM50B / RFU, TAOK1 / Fold change vs veh, TAOK1 / RFU, ACBD3 / Fold change vs veh, ACBD3 / RFU, TMA16 / Fold change vs veh, TMA16 / RFU, RWDD3 / Fold change vs veh, RWDD3 / RFU, BCAT1 / Fold change vs veh, BCAT1 / RFU, EDEM3 / Fold change vs veh, EDEM3 / RFU, TMEM33 / Fold change vs veh, TMEM33 / RFU, WDR75 / Fold change vs veh, WDR75 / RFU, AHCTF1 / Fold change vs veh, AHCTF1 / RFU, TFRC / Fold change vs veh, TFRC / RFU, ZDHHC17 / Fold change vs veh, ZDHHC17 / RFU, NOM1 / Fold change vs veh, NOM1 / RFU, ARL8B / Fold change vs veh, ARL8B / RFU, ZBTB11 / Fold change vs veh, ZBTB11 / RFU, TAMM41 / Fold change vs veh, TAMM41 / RFU, KIAA1704 /// LOC100996395 / Fold change vs veh, KIAA1704 /// LOC100996395 / RFU, ING1 / Fold change vs veh, ING1 / RFU, TRMT61B / Fold change vs veh, TRMT61B / RFU, FUBP3 / Fold change vs veh, FUBP3 / RFU, TP53 / Fold change vs veh, TP53 / RFU, TNKS2 / Fold change vs veh, TNKS2 / RFU, ZFP14 / Fold change vs veh, ZFP14 / RFU, ACTR2 / Fold change vs veh, ACTR2 / RFU, PPP3R1 / Fold change vs veh, PPP3R1 / RFU, PIK3R1 / Fold change vs veh, PIK3R1 / RFU, HNRNPA1 / Fold change vs veh, HNRNPA1 / RFU, RNF170 / Fold change vs veh, RNF170 / RFU, ZNF28 / Fold change vs veh, ZNF28 / RFU, RNGTT / Fold change vs veh, RNGTT / RFU, OGT / Fold change vs veh, OGT / RFU, BRD1 / Fold change vs veh, BRD1 / RFU, MARS / Fold change vs veh, MARS / RFU, ZNF655 / Fold change vs veh, ZNF655 / RFU, FAHD1 / Fold change vs veh, FAHD1 / RFU, BDP1 / Fold change vs veh, BDP1 / RFU, LRRCC1 / Fold change vs veh, LRRCC1 / RFU, ARID1A / Fold change vs veh, ARID1A / RFU, ZNF146 / Fold change vs veh, ZNF146 / RFU, ZNF330 / Fold change vs veh, ZNF330 / RFU, GPN3 / Fold change vs veh, GPN3 / RFU, C9orf123 / Fold change vs veh, C9orf123 / RFU, N4BP2L2 / Fold change vs veh, N4BP2L2 / RFU, ARFIP1 / Fold change vs veh, ARFIP1 / RFU, FAM179B / Fold change vs veh, FAM179B / RFU, BCL10 / Fold change vs veh, BCL10 / RFU, UHRF1BP1L / Fold change vs veh, UHRF1BP1L / RFU, BET1 / Fold change vs veh, BET1 / RFU, CNOT2 / Fold change vs veh, CNOT2 / RFU, ZNF268 / Fold change vs veh, ZNF268 / Fold change vs veh, ZNF507 / RFU, DGCR2 / Fold change vs veh, DGCR2 / RFU, WDSUB1 / Fold change vs veh, WDSUB1 / Fold change vs veh, HSP90B1 /// MIR3652 / RFU, ADSS / Fold change vs veh, ADSS / RFU, GK / Fold change vs veh, GK / RFU, ZNF148 / Fold change vs veh, ZNF148 / RFU, TAF9 / Fold change vs veh, TAF9 / RFU, SLC1A5 / Fold change vs veh, SLC1A5 / RFU, SLMO2 / Fold change vs veh, SLMO2 / RFU, ABCC4 / Fold change vs veh, ABCC4 / RFU, LOC101060439 /// RAP1B / Fold change vs veh, LOC101060439 /// RAP1B / RFU, RFX7 / Fold change vs veh, RFX7 / RFU, GTPBP10 / Fold change vs veh, GTPBP10 / RFU, CNEP1R1 / Fold change vs veh, CNEP1R1 / RFU, BIVM-ERCC5 /// ERCC5 / Fold change vs veh, BIVM-ERCC5 /// ERCC5 / RFU, ILF3 / Fold change vs veh, ILF3 / RFU 11762660_at / Fold change /veh 11762660_at / RFU VCAN (11757783_s_at) / Fold change /veh VCAN (11757783_s_at) / RFU DDX43 (11728927_at) / Fold change /veh DDX43 (11728927_at) / RFU KRT8 (11758188_x_at) / Fold change /veh KRT8 (11758188_x_at) / RFU NKD1 (11759106_at) / Fold change /veh NKD1 (11759106_at) / RFU SRD5A1 (11742802_a_at) / Fold change /veh SRD5A1 (11742802_a_at) / RFU TPSAB1 /// TPSB2 (11721975_s_at) / Fold change /veh TPSAB1 /// TPSB2 (11721975_s_at) / RFU GSTM3 (11746129_a_at) / Fold change /veh GSTM3 (11746129_a_at) / RFU IL23R (11737362_x_at) / Fold change /veh IL23R (11737362_x_at) / RFU TMEM51 (11727254_a_at) / Fold change /veh TMEM51 (11727254_a_at) / RFU PIWIL2 (11732686_x_at) / Fold change /veh PIWIL2 (11732686_x_at) / RFU ORM1 (11744905_x_at) / Fold change /veh ORM1 (11744905_x_at) / RFU CCDC152 (11743942_at) / Fold change /veh CCDC152 (11743942_at) / RFU ECM1 (11717891_a_at) / Fold change /veh ECM1 (11717891_a_at) / RFU IL23R (11748794_a_at) / Fold change /veh IL23R (11748794_a_at) / RFU TNFAIP8L3 (11732012_x_at) / Fold change /veh TNFAIP8L3 (11732012_x_at) / RFU MBOAT4 (11741988_at) / Fold change /veh MBOAT4 (11741988_at) / RFU 11764193_at / Fold change /veh 11764193_at / RFU TMEM53 (11763286_at) / Fold change /veh TMEM53 (11763286_at) / RFU MAGEB2 (11727129_at) / Fold change /veh MAGEB2 (11727129_at) / RFU TMEM200A (11744735_a_at) / Fold change /veh TMEM200A (11744735_a_at) / RFU CCDC152 (11751479_a_at) / Fold change /veh CCDC152 (11751479_a_at) / RFU FAM211A (11726209_a_at) / Fold change /veh FAM211A (11726209_a_at) / RFU RGS16 (11746705_a_at) / Fold change /veh RGS16 (11746705_a_at) / RFU VCAN (11755009_s_at) / Fold change /veh VCAN (11755009_s_at) / RFU RHOB (11743442_s_at) / Fold change /veh RHOB (11743442_s_at) / RFU RGS16 (11720943_a_at) / Fold change /veh RGS16 (11720943_a_at) / RFU RGS16 (11720944_at) / Fold change /veh RGS16 (11720944_at) / RFU, VPS4B / Fold change vs veh, VPS4B / RFU, CREB1 / Fold change vs veh, CREB1 / RFU, DNAJC13 / Fold change vs veh, DNAJC13 / RFU, GNAQ / Fold change vs veh, GNAQ / RFU, CDK5R1 / Fold change vs veh, CDK5R1 / RFU, ZRANB3 / Fold change vs veh, ZRANB3 / RFU, CUL4A / Fold change vs veh, CUL4A / RFU, CCNY / Fold change vs veh, CCNY / RFU, UFL1 / Fold change vs veh, UFL1 / RFU, COG3 / Fold change vs veh, COG3 / RFU, DIAPH2 / Fold change vs veh, DIAPH2 / RFU, SKA2 / Fold change vs veh, SKA2 / RFU, AFF3 / Fold change vs veh, AFF3 / RFU, LMF1 / Fold change vs veh, LMF1 / RFU, IPO11 / Fold change vs veh, IPO11 / RFU, DFFB / Fold change vs veh, DFFB / RFU, FOXP1 / Fold change vs veh, FOXP1 / RFU, CARD8 / Fold change vs veh, CARD8 / RFU, STRN3 / Fold change vs veh, STRN3 / RFU, ADK / Fold change vs veh, ADK / RFU, RASSF2 / Fold change vs veh, RASSF2 / RFU, WIPF1 / Fold change vs veh, WIPF1 / RFU, LARP1B / Fold change vs veh, LARP1B / RFU, RASA1 / Fold change vs veh, RASA1 / RFU, RB1 / Fold change vs veh, RB1 / RFU, PPFIA1 / Fold change vs veh, PPFIA1 / RFU, MAT2A / Fold change vs veh, MAT2A / RFU, CCT5 / Fold change vs veh, CCT5 / RFU, WDR92 / Fold change vs veh, WDR92 / RFU, CUX1 / Fold change vs veh, CUX1 / RFU, TTC7A / Fold change vs veh, TTC7A / RFU, TMEM135 / Fold change vs veh, TMEM135 / RFU, DEPTOR / Fold change vs veh, DEPTOR / RFU, CPM / Fold change vs veh, CPM / RFU, DNAJB6 / Fold change vs veh, DNAJB6 / RFU, CACNA2D3 / Fold change vs veh, CACNA2D3 / RFU, DTX4 / Fold change vs veh, DTX4 / RFU, TFCP2 / Fold change vs veh, TFCP2 / RFU, GMCL1 /// GMCL1P1 / Fold change vs veh, GMCL1 /// GMCL1P1 / RFU, AEBP2 / Fold change vs veh, AEBP2 / RFU, SNHG1 /// SNORD22 /// SNORD25 /// SNORD26 /// SNORD27 /// SNORD28 /// SNORD29 /// SNORD31 / Fold change vs veh, SNHG1 /// SNORD22 /// SNORD25 /// SNORD26 /// SNORD27 /// SNORD28 /// SNORD29 /// SNORD31 / Fold change (Aza/veh), C12orf56 (ProbeSet 11735607_a_at) / Fold change (ACY-1035/veh), C12orf56 (ProbeSet 11735607_a_at) / Fold change (Aza/veh), FGFR1OP (ProbeSet 11751329_s_at) / Fold change (ACY-1035/veh), FGFR1OP (ProbeSet 11751329_s_at) / Fold change (Aza/veh), VPS36 (ProbeSet 11739960_a_at) / Fold change (ACY-1035/veh), VPS36 (ProbeSet 11739960_a_at) / RFU SYPL1 (11715823_x_at) / Fold change /veh SYPL1 (11715823_x_at) / RFU IGFBP7 (11715501_s_at) / Fold change /veh IGFBP7 (11715501_s_at) / RFU REEP3 (11722064_at) / Fold change /veh REEP3 (11722064_at) / RFU IGLL1 (11728026_x_at) / Fold change /veh IGLL1 (11728026_x_at): dose or concentration left out as unconfirmed
Settings: ProbeSet 11756954_s_at; LIST B

Nc1ncn([C@@H]2O[C@H](CO)[C@@H](O)[C@H]2O)c(=O)n1 [azacitidine]
Fold change vs veh, ZEB2: 0.83
